Consider 34 compounds from patent US9206188B2, “Substituted pyrrolo[2,3-b]pyridines as ITK and JAK inhibitors” (Arrien Pharmaceuticals LLC, priority 2013, dated 2015).

One assay concerns the target JAK3 (Homo sapiens (Human), UniProt P52333). Kind of assay: JAK3 kinase assay (radiometric filter binding, 10 μM ATP). In kind it is biochemical. As for the experimental part:
(§1) All additions were done on ice, followed by the addition of ATP mix. Wells were uniformly mixed using an Eppendorff plate shaker and incubated at 30° C. for 20 min, and stopped by the addition of 5 μL of 3% phosphoric acid. Volume was increased to 100 μL by adding 0.8% phosphoric acid which was then transferred to PC filter mats (Millipore), pre-equilibrated with 70% ethanol and water. Plates were washed thrice with 100 μL 0.8% phosphoric acid and dried for an hour at 60° C. 100 μL scintillation fluid was added into each well and reading taken in Perkin Elmer TOPCOUNT beta counter.
(§2) The reactions were carried out at 10 μM ATP for ITK, JAK3 and other TEC and Janus family of kinase.

The next assay addresses ITK (Homo sapiens (Human), UniProt Q08881). Kind of assay: ITK kinase assay (radiometric filter binding, 10 μM ATP). It is filed as biochemical. As for the experimental part:
as §1, §2

The mark [1] stands for this setting: 10-dose IC50 mode, 10 μM ATP, read-out: JAK3 kinase inhibition.
Where [2] appears, read: 10-dose IC50 mode, 10 μM ATP, read-out: ITK kinase inhibition.
The mark [3] stands for this setting: read-out: biochemical IC50 against JAK3.
The mark [4] stands for this setting: read-out: biochemical IC50 against ITK.

Where two headings read alike, the source gives them in different places. Some results are limits rather than exact numbers.

Sequence of JAK3 (P52333 whole entry): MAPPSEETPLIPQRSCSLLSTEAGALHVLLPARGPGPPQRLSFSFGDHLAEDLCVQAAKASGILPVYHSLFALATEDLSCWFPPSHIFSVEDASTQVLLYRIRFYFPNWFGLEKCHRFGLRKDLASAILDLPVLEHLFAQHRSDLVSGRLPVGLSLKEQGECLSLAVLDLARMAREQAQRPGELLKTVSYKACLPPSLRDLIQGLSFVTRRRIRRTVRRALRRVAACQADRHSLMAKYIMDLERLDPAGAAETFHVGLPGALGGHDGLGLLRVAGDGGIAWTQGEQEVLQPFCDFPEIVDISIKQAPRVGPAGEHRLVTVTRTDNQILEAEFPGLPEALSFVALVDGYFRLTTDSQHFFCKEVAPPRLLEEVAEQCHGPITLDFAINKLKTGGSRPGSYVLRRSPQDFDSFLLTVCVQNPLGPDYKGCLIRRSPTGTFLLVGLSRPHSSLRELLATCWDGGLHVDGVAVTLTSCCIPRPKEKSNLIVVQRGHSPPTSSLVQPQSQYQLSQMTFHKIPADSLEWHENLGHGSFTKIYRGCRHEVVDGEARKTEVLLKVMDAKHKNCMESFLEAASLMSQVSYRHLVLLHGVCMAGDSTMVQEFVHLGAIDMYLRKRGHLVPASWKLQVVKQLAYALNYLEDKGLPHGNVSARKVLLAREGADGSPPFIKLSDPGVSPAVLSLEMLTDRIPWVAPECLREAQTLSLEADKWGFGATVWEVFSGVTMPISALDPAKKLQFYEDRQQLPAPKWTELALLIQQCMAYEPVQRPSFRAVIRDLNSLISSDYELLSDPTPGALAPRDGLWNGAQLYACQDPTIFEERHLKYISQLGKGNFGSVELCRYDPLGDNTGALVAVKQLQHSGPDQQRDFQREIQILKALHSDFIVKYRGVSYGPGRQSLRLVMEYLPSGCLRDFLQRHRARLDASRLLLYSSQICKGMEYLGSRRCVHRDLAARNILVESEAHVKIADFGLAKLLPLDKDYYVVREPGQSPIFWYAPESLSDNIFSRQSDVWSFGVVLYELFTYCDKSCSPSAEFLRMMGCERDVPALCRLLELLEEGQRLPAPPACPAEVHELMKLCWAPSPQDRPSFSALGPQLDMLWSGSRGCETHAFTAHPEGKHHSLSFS
Sequence of ITK (Q08881 whole entry): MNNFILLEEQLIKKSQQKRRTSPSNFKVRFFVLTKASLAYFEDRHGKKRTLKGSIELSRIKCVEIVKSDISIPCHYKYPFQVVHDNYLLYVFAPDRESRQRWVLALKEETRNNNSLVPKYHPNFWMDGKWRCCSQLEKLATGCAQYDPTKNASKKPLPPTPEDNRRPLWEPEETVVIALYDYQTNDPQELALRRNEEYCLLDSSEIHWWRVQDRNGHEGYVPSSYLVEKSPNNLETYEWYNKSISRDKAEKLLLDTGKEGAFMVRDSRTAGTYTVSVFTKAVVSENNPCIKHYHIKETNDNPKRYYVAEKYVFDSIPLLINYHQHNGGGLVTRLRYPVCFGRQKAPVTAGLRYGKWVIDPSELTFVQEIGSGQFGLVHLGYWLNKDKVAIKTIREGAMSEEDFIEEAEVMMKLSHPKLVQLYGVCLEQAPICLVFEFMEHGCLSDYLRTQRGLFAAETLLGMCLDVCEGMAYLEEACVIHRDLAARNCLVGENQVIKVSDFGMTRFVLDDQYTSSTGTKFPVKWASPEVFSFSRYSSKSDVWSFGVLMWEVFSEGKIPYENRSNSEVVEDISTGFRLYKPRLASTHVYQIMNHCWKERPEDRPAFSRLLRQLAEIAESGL

Take `C=CC(=O)Nc1cccc(-c2cnc3[nH]cc(-c4cc(F)cc(F)c4OC)c3c2)n1` [Example 42, N-(6-(3-(3,5-difluoro-2-methoxyphenyl)-1H-pyrrolo[2,3-b]pyridin-5-yl)pyridin-2-yl)acrylamide]: the IC50 on JAK3 (setting [1]) and at ITK (setting [2]) was above 0.1 µM throughout.
For the compound `C=CC(=O)Nc1cc(-c2cnc3[nH]cc(Cl)c3c2)ccc1Cl` [Example 46, N-(2-chloro-5-(3-chloro-1H-pyrrolo[2,3-b]pyridin-5-yl)phenyl)acrylamide], the IC50 on JAK3 (setting [1]) and on ITK (setting [2]) was above 1 µM in each case.
With `CC/C=C/C(=O)Nc1cc(-c2cnc3[nH]cc(Cl)c3c2)ccc1Cl` [Example 47, (E)-N-(2-chloro-5-(3-chloro-1H-pyrrolo[2,3-b]pyridin-5-yl)phenyl)pent-2-enamide], the IC50 on JAK3 (setting [1]) and at ITK (setting [2]) was above 1 µM each time.
Regarding `Cc1n[nH]c2ncc(-c3cccc(NC(=O)/C=C/N(C)C)c3)cc12` [Example 48, (E)-3-(dimethylamino)-N-(3-(3-methyl-1H-pyrazolo[3,4-b]pyridin-5-yl)phenyl)acrylamide], the IC50 on JAK3 (setting [1]) and on ITK (setting [2]) was above 0.1 µM throughout.
As for `Cc1n[nH]c2ncc(-c3ccc(Cl)c(NC(=O)/C=C/N(C)C)c3)cc12` [Example 49, (E)-N-(2-chloro-5-(3-methyl-1H-pyrazolo[3,4-b]pyridin-5-yl)phenyl)-3-(dimethylamino)acrylamide], the IC50 at JAK3 (setting [1]) and on ITK (setting [2]) was above 0.1 µM in each case.
Take `C=CC(=O)Nc1cc(-c2cnc3[nH]nc(C)c3c2)ccc1Cl` [Example 50, N-(2-chloro-5-(3-methyl-1H-pyrazolo[3,4-b]pyridin-5-yl)phenyl)acrylamide]: the IC50 at JAK3 (setting [1]) and on ITK (setting [2]) was above 0.1 µM in each case.
In the case of `CC/C=C/C(=O)Nc1cc(-c2cnc3[nH]nc(C)c3c2)ccc1Cl` [Example 52, (E)-N-(2-chloro-5-(3-methyl-1H-pyrazolo[3,4-b]pyridin-5-yl)phenyl)pent-2-enamide], the IC50 at JAK3 (setting [1]) and at ITK (setting [2]) was above 1 µM in each case.
For `N#CCc1cccc(Nc2cnc3[nH]cc(Cl)c3c2)c1` [Example 53, 2-(3-((3-chloro-1H-pyrrolo[2,3-b]pyridin-5-yl)amino)phenyl)acetonitrile], the IC50 at JAK3 (setting [1]) and on ITK (setting [2]) was above 1 µM each time.
For `C=CC(=O)Nc1cccc(-c2cnc3[nH]ccc3c2)n1` [Example 57, N-(6-(1H-pyrrolo[2,3-b]pyridin-5-yl)pyridin-2-yl)acrylamide], the results for the IC50 on JAK3 (setting [1]) and at ITK (setting [2]) were below 0.1 µM and above 0.1 µM, respectively.
As to `C=CC(=O)Nc1cccc(-c2cnc3[nH]cc(Cl)c3c2)n1` [Example 58, N-(6-(3-chloro-1H-pyrrolo[2,3-b]pyridin-5-yl)pyridin-2-yl)acrylamide], the IC50 was below 0.1 µM at JAK3 (setting [1]) and above 0.1 µM at ITK (setting [2]).
For `C=CC(=O)Nc1cc(-c2cnc3[nH]ccc3c2)ccc1F` [Example 59, N-(2-fluoro-5-(1H-pyrrolo[2,3-b]pyridin-5-yl)phenyl)acrylamide], in that order: below 0.1 µM and below 0.1 µM.
For `C=CC(=O)Nc1ccc(-c2cnc3[nH]ccc3c2)cc1F` [Example 61, N-(2-fluoro-4-(1H-pyrrolo[2,3-b]pyridin-5-yl)phenyl)acrylamide], in that order: above 0.1 µM and above 1 µM.
As for `C=CC(=O)Nc1ccc(-c2cnc3[nH]cc(Cl)c3c2)cc1F` [Example 62, -(4-(3-chloro-1H-pyrrolo[2,3-b]pyridin-5-yl)-2-fluorophenyl)acrylamide], the IC50 on JAK3 (setting [1]) is above 0.1 µM; on ITK (setting [2]), above 1 µM.
The corresponding values for `C=CC(=O)Nc1cc(-c2cnc3[nH]ccc3c2)cc(F)c1F` [Example 63, N-(2,3-difluoro-5-(1H-pyrrolo[2,3-b]pyridin-5-yl)phenyl)acrylamide] are above 0.1 µM and above 1 µM.
For the compound `C=CC(=O)Nc1cccc(-c2cnc3[nH]cc(-c4cc5ccccc5[nH]4)c3c2)c1` [Example 66, N-(3-(3-(1H-indol-2-yl)-1H-pyrrolo[2,3-b]pyridin-5-yl)phenyl)acrylamide], the IC50 on JAK3 (setting [1]) was below 0.1 µM; at JAK3 (setting [3]) it was 0.1 to 1 µM; at ITK (setting [2]), below 0.1 µM; at ITK (setting [4]) it was 0.1 to 1 µM.
As to `O=C(Nc1cccc(-c2cnc3[nH]cc(Cl)c3c2)c1)C1CCCN1` (stereo not drawn) [Example 67, N-(3-(3-chloro-1H-pyrrolo[2,3-b]pyridin-5-yl)phenyl)pyrrolidine-2-carboxamide], the IC50 on JAK3 (setting [1]) and on ITK (setting [2]) was above 0.1 µM throughout.
Turning to `C=CC(=O)N1CCCC1C(=O)Nc1cccc(-c2cnc3[nH]cc(Cl)c3c2)c1` (stereo not drawn) [Example 68, 1-acryloyl-N-(3-(3-chloro-1H-pyrrolo[2,3-b]pyridin-5-yl)phenyl)pyrrolidine-2-carboxamide], the IC50 at JAK3 (setting [1]) and on ITK (setting [2]) was above 0.1 µM throughout.
Take `C=CC(=O)N1CCCC1C(=O)Nc1cnc2[nH]ccc2c1` (stereo not drawn) [Example 69, 1-acryloyl-N-(1H-pyrrolo[2,3-b]pyridin-5-yl)pyrrolidine-2-carboxamide]: the IC50 on JAK3 (setting [1]) and at ITK (setting [2]) was above 0.1 µM in each case.
As to `C#CC(=O)Nc1cccc(-c2cnc3[nH]cc(C)c3c2)c1` [Example 70, N-(3-(3-methyl-1H-pyrrolo[2,3-b]pyridin-5-yl)phenyl)propiolamide], the figures for the IC50 on JAK3 (setting [1]) and on ITK (setting [2]) were below 0.1 µM and above 0.1 µM, respectively.
For `Cc1c[nH]c2ncc(-c3cccc(NC(=O)C4CCCN4)c3)cc12` (stereo not drawn) [Example 71, N-(3-(3-methyl-1H-pyrrolo[2,3-b]pyridin-5-yl)phenyl)pyrrolidine-2-carboxamide], in that order: above 0.1 µM and above 0.1 µM.
For `C=CC(=O)N1CCCC1C(=O)Nc1cccc(-c2cnc3[nH]cc(C)c3c2)c1` (stereo not drawn) [Example 72, 1-acryloyl-N-(3-(3-methyl-1H-pyrrolo[2,3-b]pyridin-5-yl)phenyl)pyrrolidine-2-carboxamide], in that order: above 0.1 µM and above 0.1 µM.
The corresponding values for `C=CC(=O)Nc1cccc(-c2cnc3[nH]cc(-c4cc5ccccc5[nH]4)c3c2)c1` [Example 74, N-(3-(3-(1H-indol-2-yl)-1H-pyrrolo[2,3-b]pyridin-5-yl)phenyl)acrylamide] are above 0.1 µM and above 1 µM.
For the compound `C=CC(=O)Nc1cccc(-c2cnc3[nH]cc(-c4cc5ccc(C)cc5[nH]4)c3c2)c1` [Example 75, N-(3-(3-(6-methyl-1H-indol-2-yl)-1H-pyrrolo[2,3-b]pyridin-5-yl)phenyl)acrylamide], the IC50 at JAK3 (setting [1]) is below 0.1 µM; at JAK3 (setting [3]) it was 0.1 to 1 µM; on ITK (setting [2]) it was above 1 µM; on ITK (setting [4]), 0.1 to 1 µM.
For the compound `C=CC(=O)Nc1cccc(-c2cnc3[nH]cc(-c4cccc(C(N)=O)c4)c3c2)c1` [Example 76, 3-(5-(3-acrylamidophenyl)-1H-pyrrolo[2,3-b]pyridin-3-yl)benzamide], the IC50 at JAK3 (setting [1]) and at ITK (setting [2]) was above 0.1 µM throughout.
As to `C#CC(=O)Nc1cccc(-c2cnc3[nH]ccc3c2)n1` [Example 77, N-(6-(1H-pyrrolo[2,3-b]pyridin-5-yl)pyridin-2-yl)propiolamide], the IC50 at JAK3 (setting [1]) and at ITK (setting [2]) was below 0.1 µM throughout.
Take `CCC#CC(=O)Nc1cccc(-c2cnc3[nH]ccc3c2)n1` [Example 78, N-(6-(1H-pyrrolo[2,3-b]pyridin-5-yl)pyridin-2-yl)pent-2-ynamide]: the IC50 at JAK3 (setting [1]) and at ITK (setting [2]) was below 0.1 µM throughout.
As for `C#CC(=O)Nc1cccc(-c2cnc3[nH]cc(Cl)c3c2)n1` [Example 79, N-(6-(3-chloro-1H-pyrrolo[2,3-b]pyridin-5-yl)pyridin-2-yl)propiolamide], the IC50 on JAK3 (setting [1]) and at ITK (setting [2]) was below 0.1 µM in each case.
For `CCC#CC(=O)Nc1cccc(-c2cnc3[nH]cc(Cl)c3c2)n1` [Example 80, N-(6-(3-chloro-1H-pyrrolo[2,3-b]pyridin-5-yl)pyridin-2-yl)pent-2-ynamide], the IC50 on JAK3 (setting [1]) and on ITK (setting [2]) was below 0.1 µM throughout.
For `CC#CC(=O)Nc1cccc(-c2cnc3[nH]ccc3c2)n1` [Example 81, N-(6-(1H-pyrrolo[2,3-b]pyridin-5-yl)pyridin-2-yl)but-2-ynamide], the IC50 on JAK3 (setting [1]) and on ITK (setting [2]) was below 0.1 µM throughout.
For the compound `CC#CC(=O)Nc1cccc(-c2cnc3[nH]cc(Cl)c3c2)n1` [Example 82, N-(6-(3-chloro-1H-pyrrolo[2,3-b]pyridin-5-yl)pyridin-2-yl)but-2-ynamide], the IC50 on JAK3 (setting [1]) and at ITK (setting [2]) was below 0.1 µM in each case.
On to `C#CC(=O)Nc1cc(-c2cnc3[nH]ccc3c2)ccc1F` [Example 83, N-(2-fluoro-5-(1H-pyrrolo[2,3-b]pyridin-5-yl)phenyl)propiolamide], for which the figures for the IC50 on JAK3 (setting [1]) and at ITK (setting [2]) were below 0.1 µM and above 1 µM, respectively.
In the case of `C#CC(=O)Nc1cc(-c2cnc3[nH]cc(Cl)c3c2)ccc1F` [Example 84, N-(5-(3-chloro-1H-pyrrolo[2,3-b]pyridin-5-yl)-2-fluorophenyl)propiolamide], the IC50 at JAK3 (setting [1]) is below 0.1 µM; at ITK (setting [2]) it was above 1 µM.
For `CCC#CC(=O)Nc1cc(-c2cnc3[nH]ccc3c2)ccc1F` [Example 85, N-(2-fluoro-5-(1H-pyrrolo[2,3-b]pyridin-5-yl)phenyl)pent-2-ynamide], in that order: below 0.1 µM and above 1 µM.
The corresponding values for `CCC#CC(=O)Nc1cc(-c2cnc3[nH]cc(Cl)c3c2)ccc1F` [Example 86, N-(5-(3-chloro-1H-pyrrolo[2,3-b]pyridin-5-yl)-2-fluorophenyl)pent-2-ynamide] are below 0.1 µM and above 0.1 µM.
